One assay has as its target T1, plasma kallikrein (Homo sapiens, UniProt P03952).
T1 construct: from tissue; host or cells: sodium citrate collected human plasma
Kind of assay: Neat human plasma assay (fluorogenic peptide), contact pathway-activated plasma. It counts as biochemical. To be noted: read-out: Human Plasma Assay: IC90. The procedure:
To analyze inhibition of plasma kallikrein in an ex vivo setting, the potency of compounds was measure in contact pathway-activated plasma assays. In a fluorogenic peptide substrate assay, test compounds dissolved in DMSO were added to sodium citrate collected human or rat plasma in a 96-well microplate. Alternatively, citrated plasma was collected from rats administered the compounds orally or by IV. 10 nM of human FXIIa (Enzyme Research Laboratories) diluted in PKa buffer (20 mM Tris-HCl, pH 7.5, 150 mM NaCl, 1 mM EDTA, 0.100 PEG-8000, and 0.1% Triton X-100) was added to the plasma, followed by the 100 μM of the profluorescent, synthetic plasma kallikrein substrate PFR-AMC (also diluted in PKa buffer). Final plasma concentration in the reaction was […]. Fluorescence was immediately monitored by excitation/emission wavelengths of 360 nm/480 nm respectively over a period of 5 minutes in a microplate reader. The resulting linear increase in fluorescence emission (reflecting PKa proteolysis of PFR-AMC substrate) was fit to extract a proteolytic rate (fluorescent units over time), and this rate was subsequently plotted against compound inhibitor concentration. Resulting plots were fit to a standard 4-parameter IC50/C90 equation to determine min/max values, IC50/90, and slope. All experimental steps were performed at room temperature.

The target in assay [1] is human activated kallikrein enzyme (Homo sapiens, UniProt P03952). As to the kind of experiment: Inhibition of human activated plasma kallikrein, fluorogenic peptide substrate (PFR-AMC), 500 pM enzyme format. It counts as biochemical. Conditions: 500 pM activated kallikrein, 30 min preincubation, 10 min reaction, room temperature, read-out: Primary Dose Response Assay: Average EC50. Summed up:
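Enzyme at 500 pM with […] PFR-AMC in 20 mM Tris pH 7.5, 1 mM EDTA, 150 mM NaCl, 0.1% PEG-400, 0.1% Triton X-100. Inhibitor preincubated 30 min, then 10 min reaction at room temperature; AMC fluorescence read at 380 nm excitation/460 nm emission.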

Where [2] appears, read: citrated human plasma, 10 nM human FXIIa activation, 100 μM PFR-AMC, room temperature.

Where two headings read alike, the source gives them in different places.

One may read the IC90 as the concentration needed for an effect of 90%. By EC50 is commonly meant the concentration at which the effect is half-maximal.

Sequence of human activated kallikrein enzyme (P03952 391-638 limits assumed): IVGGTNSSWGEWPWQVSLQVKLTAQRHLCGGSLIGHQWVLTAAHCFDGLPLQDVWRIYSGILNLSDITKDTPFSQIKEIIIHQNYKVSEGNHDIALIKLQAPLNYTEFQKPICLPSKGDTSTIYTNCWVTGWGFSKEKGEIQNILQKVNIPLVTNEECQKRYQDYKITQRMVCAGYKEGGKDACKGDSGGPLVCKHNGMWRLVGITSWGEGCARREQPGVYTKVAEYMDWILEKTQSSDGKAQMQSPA
Sequence of human activated kallikrein enzyme (P03952 20-390 partner limits assumed): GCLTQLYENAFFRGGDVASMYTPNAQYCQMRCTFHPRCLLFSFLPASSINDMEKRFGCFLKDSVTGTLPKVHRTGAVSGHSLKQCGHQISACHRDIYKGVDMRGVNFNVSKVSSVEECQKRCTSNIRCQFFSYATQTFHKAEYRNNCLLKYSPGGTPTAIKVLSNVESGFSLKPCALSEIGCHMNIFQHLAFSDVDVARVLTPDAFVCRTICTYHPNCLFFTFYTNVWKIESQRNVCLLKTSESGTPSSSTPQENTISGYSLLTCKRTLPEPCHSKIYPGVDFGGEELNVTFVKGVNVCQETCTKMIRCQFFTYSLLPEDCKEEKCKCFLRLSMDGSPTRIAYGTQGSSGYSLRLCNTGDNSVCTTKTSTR
T1 sequence (P03952 391-638 limits assumed): as the sequence (P03952 391-638 limits assumed) above
T1 sequence (P03952 20-390 partner limits assumed): as the sequence (P03952 20-390 partner limits assumed) above

As to `Cc1ccnc([C@H]2C[C@@H]2C(=O)Nc2cc(N(C)Cc3cn4cc(C5CC5)nc(N5CCCC5=O)c4n3)ncn2)n1` [Example 85, (1S,2S)—N-(6-(((6-cyclopropyl-8-(2-oxopyrrolidin-1-yl)imidazo[1,2-a]pyrazin-2-yl)methyl)(methyl)amino)pyrimidin-4-yl)-2-(4-methylpyrimidin-2-yl)cyclopropane-1-carboxamide], at plasma kallikrein (setting [2]), the IC90 was under 0.5 µM. Besides, in assay [1], the EC50 was under 0.0025 µM.
The like results for `N#Cc1ccc(Cl)cc1[C@H]1C[C@@H]1C(=O)Nc1cc(NCc2nc3ncc(C4CC4)cn3n2)ccn1` (racemic) [Example 42, rac-(1S*,2S*)-2-(5-chloro-2-cyanophenyl)-N-(4-(((6-cyclopropyl-[1,2,4]triazolo[1,5-a]pyrimidin-2-yl)methyl)amino)pyridin-2-yl)cyclopropane-1-carboxamide] were, in that order, 0.5 to 5 µM and under 0.0025 µM.
In the case of `Cc1ccnc([C@H]2C[C@@H]2C(=O)Nc2cc(N3C[C@@H](O)C[C@@H]3c3ccc(N4CC5CC5C4)nc3)ncn2)n1` (relative stereo) [Example 71, rac-(1S*,2S*)—N-(6-((2R^•,4S)-2-(6-(3-azabicyclo[3.1.0]hexan-3-yl)pyridin-3-yl)-4-hydroxypyrrolidin-1-yl)pyrimidin-4-yl)-2-(4-methylpyrimidin-2-yl)cyclopropane-1-carboxamide], on plasma kallikrein (setting [2]), the 90% effect concentration (IC90) lay in the range of 0.5 to 5 µM. In assay [1], the EC50 was 0.0025 to 0.025 µM.
The like results for `Cc1ccnc([C@H]2C[C@@H]2C(=O)Nc2nccc(NCc3cn4cc(C5CC5)cnc4n3)n2)n1` (racemic) [Example 77, rac-(1S*,2S*)—N-(4-(((6-cyclopropylimidazo[1,2-a]pyrimidin-2yl)methyl)amino)pyrimidin-2-yl)-2-(4-methylpyrimidin-2-yl)cyclopropane-1-carboxamide] were, in that order, 0.5 to 5 µM and under 0.0025 µM.
The corresponding values for `O=C(Nc1cc(NCc2nc3ccc(C4CC4)cn3n2)ccn1)[C@H]1C[C@@H]1c1cccc(Cl)c1` [Example 25, (1S,2S)-2-(3-chlorophenyl)-N-(4-(((6-cyclopropyl-[1,2,4]triazolo[1,5-a]pyridin-2-yl)methyl)amino)pyridin-2-yl)cyclopropane-1-carboxamide] are 5 to 65 µM and under 0.0025 µM.
On to `O=C(Nc1cc(NCc2nc3ccc(C4CC4)nn3n2)ccn1)[C@H]1C[C@@H]1c1cccc(Cl)c1` [Example 29, (1S,2S)-2-(3-chlorophenyl)-N-(4-(((6-cyclopropyl-[1,2,4]triazolo[1,5-b]pyridazin-2-yl)methyl)amino)pyridin-2-yl)cyclopropane-1-carboxamide], for which, on plasma kallikrein (setting [2]), the IC90 fell in the range of 5 to 65 µM. Besides, the concentration giving a half-maximal response (EC50) in assay [1] was in the range of 0.0025 to 0.025 µM.
The like results for `Cc1ccnc([C@H]2C[C@@H]2C(=O)Nc2cc(NCc3cc4cc(C5CC5)cc(N5CC(=O)N(C)C5=O)n4n3)ncn2)n1` [Example 101, (1S,2S)—N-(6-(((5-cyclopropyl-7-(3-methyl-2,4-dioxoimidazolidin-1-yl)pyrazolo[1,5-a]pyridin-2-yl)methyl)amino)pyrimidin-4-yl)-2-(4-methylpyrimidin-2-yl)cyclopropane-1-carboxamide] were, in that order, under 0.5 µM and under 0.0025 µM.
With `Cc1ccnc([C@H]2C[C@@H]2C(=O)Nc2cc(NCc3cc4cc(C5CC5)cc(N5CC(=O)N(C)C5=O)n4n3)nc(C)n2)n1` [Example 99, (1S,2S)—N-(6-(((5-cyclopropyl-7-(3-methyl-2,4-dioxoimidazolidin-1-yl)pyrazolo[1,5-a]pyridin-2-yl)methyl)amino)-2-methylpyrimidin-4-yl)-2-(4-methylpyrimidin-2-yl)cyclopropane-1-carboxamide], the IC90 on plasma kallikrein was under 0.5 µM. The EC50 in assay [1] was under 0.0025 µM.
With `Cc1ccnc([C@H]2C[C@@H]2C(=O)Nc2ncc(F)c(NCc3cn4cc(C5CC5)nc(N5CC(=O)N(C)C5=O)c4n3)n2)n1` (racemic) [Example 84, rac-(1S*,2S*)—N-(4-(((6-cyclopropyl-8-(3-methyl-2,4-dioxoimidazolidin-1-yl)imidazo[1,2-a]pyrazin-2-yl)methyl)amino)-5-fluoropyrimidin-2-yl)-2-(4-methylpyrimidin-2-yl) cyclopropane-1-carboxamide], at plasma kallikrein (setting [2]), the IC90 was under 0.5 µM. The EC50 in assay [1] is under 0.0025 µM.
The like results for `O=C(Nc1cc(N2C[C@@H](O)C[C@@H]2c2cn3nc(C4CC4)ccc3n2)ncn1)[C@H]1C[C@@H]1c1cc(Cl)ccn1` [Example 61, (1S,2S)-2-(4-chloropyridin-2-yl)-N-(6-((2R,4S)-2-(6-cyclopropylimidazo[1,2-b]pyridazin-2-yl)-4-hydroxypyrrolidin-1-yl)pyrimidin-4-yl)cyclopropane-1-carboxamide] were, in that order, 0.5 to 5 µM and under 0.0025 µM.
The like results for `Cc1ccnc([C@H]2C[C@@H]2C(=O)Nc2nc(C)nc(OCc3cn4cc(C5CC5)nc(N5CC(=O)N(C)C5=O)c4n3)n2)n1` [Example 87, (1S,2S)—N-(4-((6-cyclopropyl-8-(3-methyl-2,4-dioxoimidazolidin-1-yl)imidazo[1,2-a]pyrazin-2-yl)methoxy)-6-methyl-1,3,5-triazin-2-yl)-2-(4-methylpyrimidin-2-yl)cyclopropane-1-carboxamide] were, in that order, 0.5 to 5 µM and under 0.0025 µM.

The values above are taken from patent US20240226106A1, “INHIBITORS OF PLASMA KALLIKREIN” (SHIRE HUMAN GENETIC THERAPIES, INC., priority 2021, published 2024).
